Reference: patent publication US20180153890A1, “PHARMACEUTICAL COMPOSITIONS AND USE THEREOF” (Hutchison MediPharma Limited, priority 2015, published 2018)
Marks after values point to notes of the source that are not given here.

Legend:
NCI-H716 tumor = experiment: Anti-tumor efficacy in NCI-H716 subcutaneous xenograft model; assay type: in vivo; settings: three weeks
Experimental: NCI-H716 cell line was purchased from ATCC (CCL-251™) and incubated in the medium of RPM11640 (Rosewell Park Memorial Institute 1640) plus 10% fetal bovine serum (FBS) at 37° C. in a 5% CO2 incubator.
BALB/c athymic male mice (6-8 weeks) were purchased from Shanghai SLAC Laboratory Animal Co. Ltd. The mice were housed under specific pathogen free conditions. They were maintained in a 12 hour light and dark cycle with the temperature at 20-25° C. and humidity of 40%-70% and given free access to Co^60 radiated-sterile diet and autoclaved sterile water. There were four mice in each cage.
Compound A was dissolved in 0.5% CMC-Na, vortexed for 1-3 min, sonicated for 15 min and stored at 4° C. Compound A was formulated at 2.0, 4.0 and 8.0 mg/mL and prepared once a week.
When NCI-H716 cells reached about 80-90% in confluence, they were detached by Trypsin-EDTA and collected after centrifugation, then suspended in serum free-medium. Each mouse was injected subcutaneously in the right lateral flank with 0.2 mL of cells suspension containing 5×10^6 tumor cells with Martrigel (1:1).
When the NCI-H716 tumors grew to around average 300 mm^3, the tumor bearing mice were randomized to vehicle and Compound A treated groups. Compound A in 0.5% CMC-Na as prepared above was orally administered to mice at 20, 40 and 80 mg/kg twice daily for three weeks, and the vehicle group received 0.5% CMC-Na orally twice daily. The dosing volume was 10 mL/kg body weight. Tumor volume (TV) was measured two times per week by caliper for length and width, and calculated using the formula: TV=width^2×length/2.
At the end of the study, tumors were harvested and tumor growth inhibition (TGI) and tumor weight inhibition (IRTW) were calculated by the following equations, where V0 were the data at day 0 (D0) (starting day) and Vt were the data at measurement day t (Dt):
TGI=[1−(Vt−V0)drug treated/(Vt−V0)vehicle]×100%
IRTW(%)=[(TWvehicle−TWtreatment)/TWvehicle]×100%
Student's t-test was used for in comparison with vehicle control. Differences were considered statistically significant at P<0.05.

NCI-H716 cells = experiment: Cell viability assay on NCI-H716 (CCK-8); assay type: cell-based; settings: Homo sapiens, 72 h incubation, read-out: IC50 on inhibition of NCI-H716 cells viability
Experimental: NCI-H716: human cecum colorectal adenocarcinoma cell line, purchased from ATCC (American Type Culture Collection).
Culture medium: RPMI 1640 containing 10% FBS.
NCI-H716 cells were diluted with RPMI-1640 medium containing 10% FBS. 90 μL of the diluted cells were added into each well of a 96-well plate so that each well contained 1×10^4 cells. The cells were subsequently incubated at 37° C., 5% CO2 overnight.
Test compound dissolved in DMSO was diluted to 30, 10, 3.33, 1.11, 0.37, 0.12, 0.04, 0.01 μM with serum free RPMI-1640 medium containing 5% DMSO. Then 10 μL of the diluted compound was added into the above 90 μL cell cultures (final concentration of DMSO in the reaction mixture should be 0.5%), and incubated at 37° C., 5% CO2 for 72 h.
10 μL of CCK-8 solution was added into cells, and incubated at 37° C., 5% CO2 for additional 1 h. The optical density of each well was measured at 450 nm and 630 nm, respectively, by Labsystems Multiskan K3.
[formula] • [OD compound]450-630: the optical density of well containing cells with compound treatment; • [OD cell]450-630: the optical density of wells containing cells without compound treatment; • [OD background]450-630: the optical density of wells containing culture medium only.
IC50: IC50 is calculated based on the inhibition curve fitted by XL-Fit 2.0 software.

[1] = 20 mg/kg bid oral, end of study

Cc1cc2cc(Oc3ccnc(Nc4cccc(CS(=O)(=O)NCCN(C)C)c4)n3)ccc2[nH]1 [Compound A, N-(2-(dimethylamino)ethyl)-1-(3-((4-((2-methyl-1H-indol-5-yl)oxy)pyrimidin-2-yl)amino)phenyl)-methanesulfonamide]
IRTW (tumor weight inhibition) (NCI-H716 tumor; [1]): 49.9* % | TGI (tumor growth inhibition) (NCI-H716 tumor; [1]): 57.1% | TGI (tumor growth inhibition) (NCI-H716 tumor; 40 mg/kg bid oral, end of study): 73.9% | TGI (tumor growth inhibition) (NCI-H716 tumor; 80 mg/kg bid oral, end of study): 80.0% | clinical signs of toxicity (NCI-H716 tumor; treated mice, 20, 40 and 80 mg/kg bid oral): No clinical signs of toxicity were observed | IC50 (NCI-H716 cells): 159 nM
